SMILES strings stand for the structures. Activity calls are given as the source filed them.

The term AC50 denotes the midpoint of the concentration-response curve, whichever way the signal moves. In general, EC50 refers to the concentration that produces a half-maximal response.

Sequence of Cytochrome P450 2C19 (P33261 whole entry): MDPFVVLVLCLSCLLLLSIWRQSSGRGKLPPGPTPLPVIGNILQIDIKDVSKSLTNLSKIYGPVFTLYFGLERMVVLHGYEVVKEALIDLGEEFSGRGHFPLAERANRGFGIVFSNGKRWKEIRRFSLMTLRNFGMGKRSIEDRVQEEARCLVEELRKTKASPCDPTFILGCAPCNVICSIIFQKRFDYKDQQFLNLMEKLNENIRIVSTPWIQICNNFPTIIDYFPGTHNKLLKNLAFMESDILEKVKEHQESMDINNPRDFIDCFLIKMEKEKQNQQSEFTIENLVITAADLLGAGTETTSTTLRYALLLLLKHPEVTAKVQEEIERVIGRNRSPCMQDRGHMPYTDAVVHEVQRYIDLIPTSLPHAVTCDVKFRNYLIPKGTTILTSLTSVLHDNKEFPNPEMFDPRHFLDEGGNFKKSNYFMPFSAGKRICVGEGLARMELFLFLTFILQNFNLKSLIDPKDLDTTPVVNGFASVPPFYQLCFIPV

The first assay has as its target Cytochrome P450 2C19 (Homo sapiens, UniProt P33261). Kind of assay: Cytochrome panel assay with activity outcomes. Panel member name: p450-cyp2c19 Compounds with AC50 equal or less than 10 uM are considered active. It is filed as functional. Particulars: read-out: AC50.
Consider `COc1ccc(S(=O)(=O)NCc2ccc(C(=O)N3CCN(c4ccccn4)CC3)cc2)cc1`, for which the AC50 is 7.94 µM (inconclusive).

The subject of another assay is Streptococcus. The assay is described as follows: GAS UMAA2166 growth inhibition – luminescence, BacTiterGlo, counter-screen for streptokinase expression inhibitor project, dose response (AID 1915).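 Note: potency for reduction of bacterial viability or growth.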 In kind it is functional, organism-based.
Conditions: not given
Background: A counterscreen serves to expose hits that act by an unwanted route or on another target.
As to `CC1=C(C#N)c2nc(N)c(C#N)c(C)c2/C1=C\c1ccc(C)cc1`, the EC50 is listed as > 150 µM (not active).
Still for that read-out and setting: next, `Cc1ccc(C(=O)/C=C(\O)C(=O)NC23CC4CC(CC(C4)C2)C3)cc1`: > 150 µM (not active); `COc1ccc(NC(=O)CN(C)C(=O)/C=C/c2cn(-c3ccccc3)nc2-c2ccc(C)cc2)cc1`: 114 µM (active).
Still for that read-out and setting: in the case of `CC(=O)N1CCc2cc(S(=O)(=O)N3CCc4ccccc43)ccc21` it was > 150 µM (not active); in that of `Cc1cc(Nc2ccccc2)nn1C(=O)c1ccc(Br)cc1`, > 150 µM (not active).
With `COc1ccc2c3ncn(CCc4c[nH]cn4)c(O)c-3nc2c1`, the EC50 is given as > 150 µM (not active).
Turning to `C=CCc1cc(/C=C2/NC(=O)N(CC)C2=O)cc(OCC)c1OCc1ccc(C(=O)O)cc1`, the EC50 was 105 µM (active).
The same measure, in the same setting: in the case of `C[C@@H](C[C@@H](O)[C@H](O)C(C)(C)O)[C@@H]1CC[C@]2(C)C3=CC[C@H]4C(C)(C)C(=O)CC[C@]4(C)[C@H]3CC[C@@]12C` it was 5.03 µM (active); in that of `CCCCSc1ccc2nc(-c3ccc(C#N)cc3)cn2c1`, 14.4 µM (active); in that of `O=C(CSc1ccc(Cl)cc1)NC1=NN(c2ccccc2)C(=O)C1`, 7.17 µM (active).
Same read-out and setting: in the case of `O=C1c2ccccc2CCC12N=NCC2c1ccc(Br)cc1` (configuration not stated) it was > 150 µM (not active); in that of `CCN(CC)S(=O)(=O)c1ccc(N2CCOCC2)c(NC(=O)C2CSC3(C)CCC(=O)N23)c1` (configuration not stated), > 150 µM (not active); in that of `O=C(CN(c1ccc(Cl)c(C(F)(F)F)c1)S(=O)(=O)c1ccccc1)N/N=C/c1cccc2c1OCCO2`, 95.3 µM (active).
Consider `COc1ccc(CCNC(=O)c2cccc(NS(=O)(=O)c3ccccc3F)c2)cc1OC`, for which the EC50 was > 150 µM (not active).
The same measure, in the same setting: next, `C=CCn1c(=O)c(C(=O)NCc2ccccc2)c(O)c2ccccc21`: > 150 µM (not active).

Tested on in another assay: not listed separately
Kind of assay: Trypanosoma cruzi growth suppression in host cells – NIH3T3 host cells, beta-gal luminescence, confirmation (AID 2044).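 Note: intracellular parasites grown in NIH/3T3 mouse fibroblasts as host cells; luminescent beta-galactosidase reporter signal from transgenic T. cruzi replicating inside host cells; inhibitors lower the luminescence signal.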 It is filed as functional, cell-based.
Conditions: not given
With `COc1ccc(C(=O)C2CCCN(Cc3c(C)[nH]c4ccccc34)C2)c(OC)c1` (configuration not stated), the EC50 was 0.299 µM (active).
With `c1ccc2c(c1)C(=NC1CCCCC1)N=C2NC1CCCCC1`, the EC50 is 1.27 µM (active).
Same read-out and setting: next, `COc1ccc(NC(=O)CN(C)C(=O)/C=C/c2cn(-c3ccccc3)nc2-c2ccc(C)cc2)cc1`: 2.17 µM (active); `O=C(CCN1C(=O)/C(=C/c2ccccc2)SC1=S)NCCCN1CCOCC1`: 2.62 µM (active); `CCN(CC)S(=O)(=O)c1cccc(C(=O)/C=C2/N(C)c3ccccc3C2(C)C)c1`: 0.739 µM (active).
On the same count and under the same terms, in the case of `COc1ccc(COc2cc(-c3cccc(OC)c3)nc3ccc(NC(C)=O)cc23)cc1` it was 0.728 µM (active); in that of `COc1cc(-c2cc(C(=O)Nc3ccc(S(=O)(=O)NCc4ccco4)cc3)c3ccccc3n2)cc(OC)c1OC`, 1.62 µM (active); in that of `O=C(CN1CCCCCCC1)N/N=C/c1ccc([N+](=O)[O-])o1`, 1.34 µM (active).
The same measure, in the same setting: in the case of `Cc1ccc(OCCn2cnc3cc([N+](=O)[O-])ccc3c2=O)cc1` it was 0.366 µM (active).
Turning to `Cc1ccc(S(=O)(=O)N(CC(=O)Nc2cccc(N(C)S(C)(=O)=O)c2)c2ccc(Cl)c(Cl)c2)cc1`, the EC50 was 2.14 µM (active).
Turning to `CN(C)c1nc(N)ncc1-c1ccc(Oc2ccccc2)cc1`, the EC50 is 0.231 µM (active).

Tested on in another assay: not listed separately
Kind of assay: NIH3T3 cell viability loss – ATP luminescence, mouse fibroblasts, counter-screen, dose response (AID 2010).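 Note: cells exposed to compound for about 90 hours before reading.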 It is filed as functional, cell-based.
Conditions: not given
`COc1ccc(C(=O)C2CCCN(Cc3c(C)[nH]c4ccccc34)C2)c(OC)c1` (configuration not stated): the EC50 is recorded as > 60 µM (not active).
`c1ccc2c(c1)C(=NC1CCCCC1)N=C2NC1CCCCC1`: the EC50 is > 60 µM (not active).
On the same count and under the same terms, next, `COc1ccc(NC(=O)CN(C)C(=O)/C=C/c2cn(-c3ccccc3)nc2-c2ccc(C)cc2)cc1`: > 60 µM (not active); `O=C(CCN1C(=O)/C(=C/c2ccccc2)SC1=S)NCCCN1CCOCC1`: 8.78 µM (active).
Same read-out and setting: in the case of `CCN(CC)S(=O)(=O)c1cccc(C(=O)/C=C2/N(C)c3ccccc3C2(C)C)c1` it was > 60 µM (inconclusive).
Still for that read-out and setting: next, `COc1ccc(COc2cc(-c3cccc(OC)c3)nc3ccc(NC(C)=O)cc23)cc1`: > 60 µM (not active).
With `COc1cc(-c2cc(C(=O)Nc3ccc(S(=O)(=O)NCc4ccco4)cc3)c3ccccc3n2)cc(OC)c1OC`, the EC50 is > 60 µM (not active).
Same read-out and setting: next, `O=C(CN1CCCCCCC1)N/N=C/c1ccc([N+](=O)[O-])o1`: > 60 µM (not active); `Cc1ccc(OCCn2cnc3cc([N+](=O)[O-])ccc3c2=O)cc1`: > 30 µM (not active); `Cc1ccc(S(=O)(=O)N(CC(=O)Nc2cccc(N(C)S(C)(=O)=O)c2)c2ccc(Cl)c(Cl)c2)cc1`: > 60 µM (not active).
Same read-out and setting: in the case of `CN(C)c1nc(N)ncc1-c1ccc(Oc2ccccc2)cc1` it was > 60 µM (not active).

A further assay has as its target T1, Streptokinase A (Streptococcus pyogenes serotype M1, UniProt P10520).
T1 sequence (P10520 whole entry): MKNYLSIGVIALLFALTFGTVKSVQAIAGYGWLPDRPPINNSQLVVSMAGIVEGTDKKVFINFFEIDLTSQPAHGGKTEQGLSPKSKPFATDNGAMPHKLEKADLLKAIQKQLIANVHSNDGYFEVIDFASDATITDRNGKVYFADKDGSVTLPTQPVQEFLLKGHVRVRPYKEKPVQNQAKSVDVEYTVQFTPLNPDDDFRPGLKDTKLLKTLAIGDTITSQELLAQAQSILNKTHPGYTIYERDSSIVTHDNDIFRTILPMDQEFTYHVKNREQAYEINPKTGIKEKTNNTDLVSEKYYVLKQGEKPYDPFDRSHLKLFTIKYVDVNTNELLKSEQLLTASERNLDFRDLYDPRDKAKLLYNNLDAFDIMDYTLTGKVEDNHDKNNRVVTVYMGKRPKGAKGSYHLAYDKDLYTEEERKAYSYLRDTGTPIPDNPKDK
The assay is described as follows: viability-normalized secreted streptokinase activity reduction – plasminogen activation absorbance, OD405, dose response (AID 1914).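 Note: secreted streptokinase activity via plasminogen activation per viability signal from cell pellet.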
Conditions: not given
It is filed as functional, Streptococcus pyogenes M1 GAS.
`CC1=C(C#N)c2nc(N)c(C#N)c(C)c2/C1=C\c1ccc(C)cc1`: the EC50 is 12.3 µM (active).
Regarding `Cc1ccc(C(=O)/C=C(\O)C(=O)NC23CC4CC(CC(C4)C2)C3)cc1`, the EC50 is recorded as > 150 µM (not active).
On the same count and under the same terms, in the case of `COc1ccc(NC(=O)CN(C)C(=O)/C=C/c2cn(-c3ccccc3)nc2-c2ccc(C)cc2)cc1` it was > 150 µM (not active); in that of `CC(=O)N1CCc2cc(S(=O)(=O)N3CCc4ccccc43)ccc21`, > 150 µM (not active).
Still for that read-out and setting: in the case of `Cc1cc(Nc2ccccc2)nn1C(=O)c1ccc(Br)cc1` it was > 150 µM (not active); in that of `COc1ccc2c3ncn(CCc4c[nH]cn4)c(O)c-3nc2c1`, > 150 µM (not active).
Still for that read-out and setting: in the case of `C=CCc1cc(/C=C2/NC(=O)N(CC)C2=O)cc(OCC)c1OCc1ccc(C(=O)O)cc1` it was > 150 µM (not active); in that of `C[C@@H](C[C@@H](O)[C@H](O)C(C)(C)O)[C@@H]1CC[C@]2(C)C3=CC[C@H]4C(C)(C)C(=O)CC[C@]4(C)[C@H]3CC[C@@]12C`, > 150 µM (not active).
Consider `CCCCSc1ccc2nc(-c3ccc(C#N)cc3)cn2c1`, for which the EC50 is given as > 150 µM (not active).
On the same count and under the same terms, next, `O=C(CSc1ccc(Cl)cc1)NC1=NN(c2ccccc2)C(=O)C1`: 9.33 µM (inconclusive); `O=C1c2ccccc2CCC12N=NCC2c1ccc(Br)cc1` (configuration not stated): 23.7 µM (active).
Regarding `CCN(CC)S(=O)(=O)c1ccc(N2CCOCC2)c(NC(=O)C2CSC3(C)CCC(=O)N23)c1` (configuration not stated), the EC50 is on record as > 150 µM (not active).
Still for that read-out and setting: in the case of `O=C(CN(c1ccc(Cl)c(C(F)(F)F)c1)S(=O)(=O)c1ccccc1)N/N=C/c1cccc2c1OCCO2` it was 32.9 µM (active); in that of `COc1ccc(CCNC(=O)c2cccc(NS(=O)(=O)c3ccccc3F)c2)cc1OC`, > 150 µM (not active); in that of `C=CCn1c(=O)c(C(=O)NCc2ccccc2)c(O)c2ccccc21`, 42.2 µM (active).

The test system of another assay is Streptococcus sp. 'group A'. The assay is described as follows: Streptococcus pyogenes SK(-)GAS viability under kanamycin – luminescence, BacTiterGlo, confirmation, counter-screen for streptokinase expression inhibitor project, dose response (AID 1900). It is filed as functional, organism-based.
Conditions: not given
`CC1=C(C#N)c2nc(N)c(C#N)c(C)c2/C1=C\c1ccc(C)cc1`: the EC50 was 4.38 µM (active).
Take `Cc1ccc(C(=O)/C=C(\O)C(=O)NC23CC4CC(CC(C4)C2)C3)cc1`: the EC50 is 4.07 µM (active).
For `CC(=O)N1CCc2cc(S(=O)(=O)N3CCc4ccccc43)ccc21`, the EC50 is > 150 µM (not active).
On the same count and under the same terms, next, `Cc1cc(Nc2ccccc2)nn1C(=O)c1ccc(Br)cc1`: 20.6 µM (active).
Regarding `COc1ccc2c3ncn(CCc4c[nH]cn4)c(O)c-3nc2c1`, the EC50 was > 150 µM (not active).
The same measure, in the same setting: next, `C=CCc1cc(/C=C2/NC(=O)N(CC)C2=O)cc(OCC)c1OCc1ccc(C(=O)O)cc1`: 12.5 µM (active); `C[C@@H](C[C@@H](O)[C@H](O)C(C)(C)O)[C@@H]1CC[C@]2(C)C3=CC[C@H]4C(C)(C)C(=O)CC[C@]4(C)[C@H]3CC[C@@]12C`: 3.13 µM (active); `CCCCSc1ccc2nc(-c3ccc(C#N)cc3)cn2c1`: 13.1 µM (active).
Same read-out and setting: next, `O=C(CSc1ccc(Cl)cc1)NC1=NN(c2ccccc2)C(=O)C1`: 7.47 µM (active).
On the same count and under the same terms, next, `O=C1c2ccccc2CCC12N=NCC2c1ccc(Br)cc1` (configuration not stated): 22.6 µM (active); `CCN(CC)S(=O)(=O)c1ccc(N2CCOCC2)c(NC(=O)C2CSC3(C)CCC(=O)N23)c1` (configuration not stated): > 150 µM (not active).
For `O=C(CN(c1ccc(Cl)c(C(F)(F)F)c1)S(=O)(=O)c1ccccc1)N/N=C/c1cccc2c1OCCO2`, the EC50 was 8.38 µM (active).
In the case of `COc1ccc(CCNC(=O)c2cccc(NS(=O)(=O)c3ccccc3F)c2)cc1OC`, the EC50 was > 150 µM (not active).
On to `C=CCn1c(=O)c(C(=O)NCc2ccccc2)c(O)c2ccccc21`, for which the EC50 is 20.4 µM (active).

The values above are taken from ChEMBL document CHEMBL1201862, “PubChem BioAssay data set” (2004).
